Results as given in PubChem BioAssay AID2060887 (Molecular Pharmacology Branch, DTP, NCI, 2025).

System: 782815-120-R-J1-PDC complex spheroid viability
Test: Anticancer human tumor 782815-120-R-J1-PDC patient-derived colon adenocarcinoma cell line growth inhibition [RAS]
Details: for IC50: curve of first compound; for viability, T/C: stronger effect = lower value
How it was run: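 Agents were tested in combination matrices in half-log decrements from a top concentration at or near clinical Cmax (10 microM if undetermined). Targets were multi-cell spheroids of tumour lines plus HUVEC and MSC stromal cells.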

[1] = second compound 0.0316 µM, first compound 0.0316 µM
[2] = second compound 0.0316 µM, first compound 0.1 µM
[3] = second compound 0.0316 µM, first compound 0.316 µM
[4] = second compound 0.0316 µM, first compound 1 µM
[5] = second compound 0.0316 µM, first compound 3.16 µM
[6] = second compound 0.0316 µM, first compound 10 µM
[7] = second compound 0.1 µM, first compound 0.0316 µM
[8] = second compound 0.1 µM, first compound 0.1 µM
[9] = second compound 0.1 µM, first compound 0.316 µM
[10] = second compound 0.1 µM, first compound 1 µM
[11] = second compound 0.1 µM, first compound 3.16 µM
[12] = second compound 0.1 µM, first compound 10 µM
[13] = second compound 0.316 µM, first compound 0.0316 µM
[14] = second compound 0.316 µM, first compound 0.1 µM
[15] = second compound 0.316 µM, first compound 0.316 µM
[16] = second compound 0.316 µM, first compound 1 µM
[17] = second compound 0.316 µM, first compound 3.16 µM
[18] = second compound 0.316 µM, first compound 10 µM
[19] = second compound 1 µM, first compound 0.0316 µM
[20] = second compound 1 µM, first compound 0.1 µM
[21] = second compound 1 µM, first compound 0.316 µM
[22] = second compound 1 µM, first compound 1 µM
[23] = second compound 1 µM, first compound 3.16 µM
[24] = second compound 1 µM, first compound 10 µM
[25] = second compound 3.16 µM, first compound 0.0316 µM
[26] = second compound 3.16 µM, first compound 0.1 µM
[27] = second compound 3.16 µM, first compound 0.316 µM
[28] = second compound 3.16 µM, first compound 1 µM
[29] = second compound 3.16 µM, first compound 3.16 µM
[30] = second compound 3.16 µM, first compound 10 µM
[31] = second compound 10 µM, first compound 0.0316 µM
[32] = second compound 10 µM, first compound 0.1 µM
[33] = second compound 10 µM, first compound 0.316 µM
[34] = second compound 10 µM, first compound 1 µM
[35] = second compound 10 µM, first compound 3.16 µM
[36] = second compound 10 µM, first compound 10 µM
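Further: spheroids exposed to compounds for 7 days before reading.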
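Wherever viability, T/C is given: 100% = DMSO vehicle control viability.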

CC(=O)OC12COC1CC(O)C1(C)C(=O)C(O)C3=C(C)C(OC(=O)C(O)C(NC(=O)OC(C)(C)C)c4ccccc4)CC(O)(C(OC(=O)c4ccccc4)C21)C3(C)C (centres undefined) + C#Cc1c(F)ccc2cc(O)cc(-c3ncc4c(N5CC6CCC(C5)N6)nc(OCC56CCCN5CC(F)C6)nc4c3F)c12
IC50 (second compound 0.0316 µM): < 0.0316 µM
IC50 (second compound 0.1 µM): < 0.0316 µM
IC50 (second compound 0.316 µM): < 0.0316 µM
IC50 (second compound 1 µM): < 0.0316 µM
IC50 (second compound 3.16 µM): < 0.0316 µM
IC50 (second compound 10 µM): < 0.0316 µM
viability, T/C [1]: 34.4%
viability, T/C [2]: 32.9%
viability, T/C [3]: 30.1%
viability, T/C [4]: 24.4%
viability, T/C [5]: 30.8%
viability, T/C [6]: 34.9%
viability, T/C [7]: 39.7%
viability, T/C [8]: 34.5%
viability, T/C [9]: 29.2%
viability, T/C [10]: 21.6%
viability, T/C [11]: 32.2%
viability, T/C [12]: 31%
viability, T/C [13]: 38.8%
viability, T/C [14]: 33.4%
viability, T/C [15]: 25.9%
viability, T/C [16]: 28.6%
viability, T/C [17]: 31.9%
viability, T/C [18]: 29.5%
viability, T/C [19]: 36.5%
viability, T/C [20]: 32.3%
viability, T/C [21]: 30.5%
viability, T/C [22]: 27.2%
viability, T/C [23]: 33.7%
viability, T/C [24]: 33.4%
viability, T/C [25]: 35.4%
viability, T/C [26]: 34.4%
viability, T/C [27]: 35.5%
viability, T/C [28]: 27.5%
viability, T/C [29]: 28.3%
viability, T/C [30]: 34.2%
viability, T/C [31]: 35.7%
viability, T/C [32]: 29.2%
viability, T/C [33]: 26.8%
viability, T/C [34]: 36%
viability, T/C [35]: 29.9%
viability, T/C [36]: 32.8%

Cc1nc(N2CCC3(CC2)COC(C)C3N)c(CO)nc1Sc1ccnc(N)c1Cl (centres undefined) + C#Cc1c(F)ccc2cc(O)cc(-c3ncc4c(N5CC6CCC(C5)N6)nc(OCC56CCCN5CC(F)C6)nc4c3F)c12
IC50 (second compound 0.0316 µM): > 10 µM
IC50 (second compound 0.1 µM): > 10 µM
IC50 (second compound 0.316 µM): > 10 µM
IC50 (second compound 1 µM): > 10 µM
IC50 (second compound 3.16 µM): > 10 µM
IC50 (second compound 10 µM): > 10 µM
viability, T/C [1]: 94.9%
viability, T/C [2]: 99.1%
viability, T/C [3]: 97.7%
viability, T/C [4]: 90.2%
viability, T/C [5]: 91.5%
viability, T/C [6]: 95.2%
viability, T/C [7]: 96%
viability, T/C [8]: 109%
viability, T/C [9]: 106%
viability, T/C [10]: 99.7%
viability, T/C [11]: 105%
viability, T/C [12]: 98.7%
viability, T/C [13]: 104%
viability, T/C [14]: 102%
viability, T/C [15]: 91.9%
viability, T/C [16]: 94.7%
viability, T/C [17]: 92.1%
viability, T/C [18]: 99.7%
viability, T/C [19]: 94.3%
viability, T/C [20]: 90.1%
viability, T/C [21]: 104%
viability, T/C [22]: 88.8%
viability, T/C [23]: 102%
viability, T/C [24]: 98.1%
viability, T/C [25]: 99.3%
viability, T/C [26]: 96.8%
viability, T/C [27]: 86%
viability, T/C [28]: 93.6%
viability, T/C [29]: 97%
viability, T/C [30]: 92.9%
viability, T/C [31]: 101%
viability, T/C [32]: 96.7%
viability, T/C [33]: 93.4%
viability, T/C [34]: 92.6%
viability, T/C [35]: 105%
viability, T/C [36]: 92.3%
